For the assay, the target named is T1, ATP-citrate synthase (Homo sapiens, UniProt P53396).
T1 sequence (P53396 whole entry): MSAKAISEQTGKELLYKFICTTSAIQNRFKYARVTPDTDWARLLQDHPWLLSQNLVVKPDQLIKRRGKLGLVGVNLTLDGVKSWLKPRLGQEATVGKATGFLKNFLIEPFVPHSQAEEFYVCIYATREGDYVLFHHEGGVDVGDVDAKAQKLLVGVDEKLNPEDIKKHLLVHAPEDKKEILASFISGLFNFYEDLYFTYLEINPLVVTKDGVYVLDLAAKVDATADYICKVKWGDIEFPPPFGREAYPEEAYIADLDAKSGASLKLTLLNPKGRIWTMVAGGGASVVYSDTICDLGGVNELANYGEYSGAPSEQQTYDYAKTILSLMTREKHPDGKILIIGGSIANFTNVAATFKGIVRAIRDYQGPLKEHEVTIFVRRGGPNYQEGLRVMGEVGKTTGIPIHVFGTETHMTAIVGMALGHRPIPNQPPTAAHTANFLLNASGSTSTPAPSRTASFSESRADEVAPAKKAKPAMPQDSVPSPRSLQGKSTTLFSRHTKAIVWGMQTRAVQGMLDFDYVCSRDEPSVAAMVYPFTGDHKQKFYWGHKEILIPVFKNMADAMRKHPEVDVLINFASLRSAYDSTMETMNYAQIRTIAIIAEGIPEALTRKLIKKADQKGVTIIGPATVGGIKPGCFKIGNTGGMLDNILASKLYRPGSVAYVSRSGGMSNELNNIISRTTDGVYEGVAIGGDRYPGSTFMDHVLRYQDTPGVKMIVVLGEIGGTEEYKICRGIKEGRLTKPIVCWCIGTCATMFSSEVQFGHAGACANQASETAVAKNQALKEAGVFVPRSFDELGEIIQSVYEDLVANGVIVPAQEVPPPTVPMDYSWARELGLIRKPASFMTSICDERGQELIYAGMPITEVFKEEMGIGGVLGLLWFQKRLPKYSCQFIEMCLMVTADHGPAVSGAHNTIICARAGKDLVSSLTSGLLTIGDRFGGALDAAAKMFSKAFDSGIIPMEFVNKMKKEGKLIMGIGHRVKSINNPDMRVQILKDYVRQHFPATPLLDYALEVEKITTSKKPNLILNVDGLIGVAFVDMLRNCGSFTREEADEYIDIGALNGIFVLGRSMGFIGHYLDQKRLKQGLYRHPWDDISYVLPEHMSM
Description: ACLY Enzyme Activity Assay. As to the method: Experimental method: ADP Glo luminescence method was used for determination. It reflects the activity of ACLY enzyme by quantitatively detecting the amount of ADP, and the enzymatic reaction catalyzed by ACLY is proportional to the amount of ADP detected by the luminescent signal. Firstly, the compound is diluted with 10% DMSO, and then […] of compound dilution is added to a 5 μl reaction system, so that the final reaction system has a DMSO content of 2%. The enzymatic reaction catalyzed by ACLY was carried out at 37° C. for 30 minutes. 5 μl reaction mixture contained the following components: 40 mM Tris, pH 8.0, 10 mM MgCl2, 5 mM DTT, ATP, CoA, sodium citrate, and ACLY. After the enzymatic reaction was complete, 2.5 μl of ADP Glo reagent was added to each reaction system and incubated at room temperature for 1 hour. Afterwards, 5 μl of kinase detection reagent was added and incubated at room temperature for 30 minutes. The luminous signal was detected using Envision (PerkinElmer, USA).

What is called IC50 is the concentration at which inhibition is half-maximal. Consider `O=C(O)C1(CCCCCC/C=C/CCCCCCC2(C(=O)O)CC=CC2)CC=CC1` [US20250011272, Example M17], for which the IC50 was 3100 nM.
Compound `O=C(c1ccc(/C(=C/CCCCCCC2(C(=O)O)C=CCC2)CCCCCCC2(C(=O)O)C=CCC2)cc1)N1CCN(c2ccccn2)CC1` (stereo unspecified) [US20250011272, Example M38] came in with an IC50 of 760 nM.
The same measure for `O=C(O)C1(CCCCCC/C=C/CCCCCCC2(C(=O)O)CCCCC2)CCCCC1` [US20250011272, Example M18]: 16500 nM; for `O=C(c1ccc(/C(=C/CCCCCCC2(C(=O)O)C=CCC2)CCCCCCC2(C(=O)O)C=CCC2)cc1)N1CCN(c2ccccc2F)CC1` (stereo unspecified) [US20250011272, Example M40]: 1690 nM; for `CC(CCCCCC/C=C/CCCCCCC(C)(C(=O)O)c1ccccc1)(C(=O)O)c1ccccc1` (stereo unspecified) [US20250011272, Example M16]: 4000 nM.
In turn, `O=C(O)c1ccc(-c2ccc(N3CCN(C(=O)c4ccc(/C(=C/CCCCCCC5(C(=O)O)C=CCC5)CCCCCCC5(C(=O)O)C=CCC5)cc4)CC3)nc2)cc1` (stereo unspecified) [US20250011272, Example M39] showed an IC50 of 1300 nM.

Source of the values: BindingDB's records for patent US20250011272 (Shanghaiinstitute of Materia Medica, 2025).
